The text below walks through data of ChEMBL document CHEMBL1201862, “PubChem BioAssay data set” (2004).

One test relates to INS1. Kind of test: beta cell apoptosis inhibitors, cytokine rescue, dose response, luminescence, retest (AID 449756).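 Also: cell death triggered by IL-1 beta plus TNF-alpha plus IFN-gamma mixture; protective hits raise ATP signal compared with cytokine alone wells.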 Format: functional, cell-based. The conditions noted are these: Rattus norvegicus.
Test [1] has as its target Luciferin 4-monooxygenase (Photinus pyralis, UniProt P08659). Kind of test: firefly luciferase enzyme inhibitors, dose response, biochemical, luminescence (AID 1891).
The nature of test [2]: Luminescence Cell-Based Dose Confirmation HTS to Identify Inhibitors of Platelet Dense Granule Release. [Related pubchem assays: 1663 (Primary HTS), 1678 (Summary of Project)]. The format is functional.
Test [3] in a line: Luminescence Cell-Based Dose Retest to Confirm Inhibitors of Cancer Stem Cells. [Related pubchem assays (depositor defined):AID2717, AID2721]. Format: functional. Particulars: Homo sapiens.
Test [4] has as its target T1, Heat shock factor protein 1 (Mus musculus, UniProt P38532).
T1 sequence (P38532 whole entry): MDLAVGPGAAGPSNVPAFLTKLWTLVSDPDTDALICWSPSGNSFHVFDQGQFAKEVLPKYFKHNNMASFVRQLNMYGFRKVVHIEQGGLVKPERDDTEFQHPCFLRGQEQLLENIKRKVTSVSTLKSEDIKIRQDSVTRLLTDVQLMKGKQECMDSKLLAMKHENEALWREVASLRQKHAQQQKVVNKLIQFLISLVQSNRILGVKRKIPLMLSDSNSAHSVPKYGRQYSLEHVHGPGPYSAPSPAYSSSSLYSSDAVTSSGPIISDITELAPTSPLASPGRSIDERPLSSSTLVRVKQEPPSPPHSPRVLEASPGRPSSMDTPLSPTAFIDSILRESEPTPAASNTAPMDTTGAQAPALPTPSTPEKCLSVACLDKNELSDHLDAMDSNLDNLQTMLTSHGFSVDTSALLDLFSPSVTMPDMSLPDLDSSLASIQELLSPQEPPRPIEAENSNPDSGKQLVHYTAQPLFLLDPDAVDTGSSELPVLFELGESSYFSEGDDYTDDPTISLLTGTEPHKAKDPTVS
Description: inhibition of MG132-induced HSE-luciferase signal, confirmation, cell-based, NIH3T3, luminescence, dose retest (AID 2382).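 Also: NIH3T3 fibroblasts with HSF1-driven luciferase reporter stressed by proteasome inhibitor MG132; luminescence from HSF1-driven luciferase expression after 8 hours of MG132 stress.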 The format is functional.

The target in a further test is Cytochrome P450 3A4 (Homo sapiens, UniProt P08684).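 Also: CYP3A4 tested as one member of a cytochrome P450 panel screen.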
Sequence of Cytochrome P450 3A4 (P08684 whole entry): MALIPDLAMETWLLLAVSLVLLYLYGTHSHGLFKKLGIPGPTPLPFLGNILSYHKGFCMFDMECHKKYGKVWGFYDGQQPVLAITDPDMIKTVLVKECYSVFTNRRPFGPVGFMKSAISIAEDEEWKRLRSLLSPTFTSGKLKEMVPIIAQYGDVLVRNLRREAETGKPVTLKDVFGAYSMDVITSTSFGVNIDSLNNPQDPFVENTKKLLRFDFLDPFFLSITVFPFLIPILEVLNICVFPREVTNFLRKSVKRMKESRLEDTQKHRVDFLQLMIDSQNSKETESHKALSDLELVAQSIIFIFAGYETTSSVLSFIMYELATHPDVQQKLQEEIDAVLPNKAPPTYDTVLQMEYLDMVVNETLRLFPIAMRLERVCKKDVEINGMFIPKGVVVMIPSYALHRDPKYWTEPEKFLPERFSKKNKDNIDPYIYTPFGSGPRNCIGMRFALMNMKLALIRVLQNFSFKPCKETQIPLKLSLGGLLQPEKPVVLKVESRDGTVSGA
The next test has as its target T2, Cytochrome P450 1A2 (Homo sapiens, UniProt P05177).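 Also: PubChem cytochrome P450 panel assay, CYP1A2 panel member.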
T2 sequence (P05177 whole entry): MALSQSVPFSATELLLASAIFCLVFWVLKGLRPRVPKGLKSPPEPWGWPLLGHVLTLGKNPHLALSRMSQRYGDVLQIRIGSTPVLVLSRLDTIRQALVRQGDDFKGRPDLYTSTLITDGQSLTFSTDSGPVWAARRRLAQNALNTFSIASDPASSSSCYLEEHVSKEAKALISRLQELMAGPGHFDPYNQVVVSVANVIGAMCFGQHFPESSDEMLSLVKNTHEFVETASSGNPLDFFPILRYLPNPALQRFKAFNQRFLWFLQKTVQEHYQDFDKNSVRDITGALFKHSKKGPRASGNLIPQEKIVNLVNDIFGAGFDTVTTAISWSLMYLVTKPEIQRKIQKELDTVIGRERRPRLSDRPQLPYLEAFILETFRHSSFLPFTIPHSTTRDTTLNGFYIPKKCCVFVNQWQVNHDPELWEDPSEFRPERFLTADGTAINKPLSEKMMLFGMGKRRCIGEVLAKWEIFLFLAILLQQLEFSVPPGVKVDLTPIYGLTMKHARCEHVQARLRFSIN

The target of another test is Cytochrome P450 2C9 (Homo sapiens, UniProt P11712).
Sequence of Cytochrome P450 2C9 (P11712 whole entry): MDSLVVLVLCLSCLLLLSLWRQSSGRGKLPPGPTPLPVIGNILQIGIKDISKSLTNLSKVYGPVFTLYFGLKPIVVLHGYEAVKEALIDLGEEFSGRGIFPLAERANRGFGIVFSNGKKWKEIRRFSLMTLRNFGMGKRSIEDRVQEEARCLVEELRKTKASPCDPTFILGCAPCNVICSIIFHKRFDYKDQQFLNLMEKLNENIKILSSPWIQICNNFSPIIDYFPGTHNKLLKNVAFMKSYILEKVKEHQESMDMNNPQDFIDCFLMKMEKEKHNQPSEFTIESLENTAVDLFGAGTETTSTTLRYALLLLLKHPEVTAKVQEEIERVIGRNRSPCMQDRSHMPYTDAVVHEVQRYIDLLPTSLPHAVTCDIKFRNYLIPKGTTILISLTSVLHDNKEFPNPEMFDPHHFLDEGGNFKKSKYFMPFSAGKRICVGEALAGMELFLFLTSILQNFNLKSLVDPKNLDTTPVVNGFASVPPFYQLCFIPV
Test [5] deals with Streptococcus sp. 'group A'. Description: growth inhibition of control SK(-) GAS strain, dose response, counter-screen for streptokinase expression inhibitor project, luminescence, kanamycin, BacTiterGlo, confirmation (AID 1900). Format: functional, organism-based. A general note: The purpose of a counterscreen is to sort out artefacts and off-target activity.
The target in a further test is T3, Streptokinase A (Streptococcus pyogenes serotype M1, UniProt P10520).
T3 sequence (P10520 whole entry): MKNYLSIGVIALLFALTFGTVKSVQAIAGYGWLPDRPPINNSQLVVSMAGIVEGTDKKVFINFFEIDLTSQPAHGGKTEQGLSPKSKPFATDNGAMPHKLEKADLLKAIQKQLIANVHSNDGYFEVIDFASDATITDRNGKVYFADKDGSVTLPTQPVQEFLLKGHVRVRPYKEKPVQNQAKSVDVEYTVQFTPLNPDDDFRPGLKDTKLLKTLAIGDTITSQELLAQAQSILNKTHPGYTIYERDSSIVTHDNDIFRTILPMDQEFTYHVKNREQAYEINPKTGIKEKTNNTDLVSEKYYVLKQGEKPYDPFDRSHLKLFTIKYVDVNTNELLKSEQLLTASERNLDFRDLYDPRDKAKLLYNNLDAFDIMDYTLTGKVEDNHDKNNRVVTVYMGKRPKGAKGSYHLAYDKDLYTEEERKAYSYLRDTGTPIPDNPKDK
Description: S. pyogenes streptokinase expression inhibitors, potency, dose response, plasminogen activation absorbance, OD405 (AID 1914).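 Also: secreted streptokinase activity via plasminogen activation per viability signal from cell pellet.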 The format is functional, Streptococcus pyogenes M1 GAS.

The test system of another test is Streptococcus. Description: Group A Streptococcus viability loss, dose response, counter-screen for streptokinase expression inhibitor project, luminescence, BacTiterGlo (AID 1915).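 Also: potency for reduction of bacterial viability or growth.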 Format: functional, organism-based.
Another test deals with T4, Protein skinhead-1 (Caenorhabditis elegans, UniProt P34707).
T4 sequence (P34707 whole entry): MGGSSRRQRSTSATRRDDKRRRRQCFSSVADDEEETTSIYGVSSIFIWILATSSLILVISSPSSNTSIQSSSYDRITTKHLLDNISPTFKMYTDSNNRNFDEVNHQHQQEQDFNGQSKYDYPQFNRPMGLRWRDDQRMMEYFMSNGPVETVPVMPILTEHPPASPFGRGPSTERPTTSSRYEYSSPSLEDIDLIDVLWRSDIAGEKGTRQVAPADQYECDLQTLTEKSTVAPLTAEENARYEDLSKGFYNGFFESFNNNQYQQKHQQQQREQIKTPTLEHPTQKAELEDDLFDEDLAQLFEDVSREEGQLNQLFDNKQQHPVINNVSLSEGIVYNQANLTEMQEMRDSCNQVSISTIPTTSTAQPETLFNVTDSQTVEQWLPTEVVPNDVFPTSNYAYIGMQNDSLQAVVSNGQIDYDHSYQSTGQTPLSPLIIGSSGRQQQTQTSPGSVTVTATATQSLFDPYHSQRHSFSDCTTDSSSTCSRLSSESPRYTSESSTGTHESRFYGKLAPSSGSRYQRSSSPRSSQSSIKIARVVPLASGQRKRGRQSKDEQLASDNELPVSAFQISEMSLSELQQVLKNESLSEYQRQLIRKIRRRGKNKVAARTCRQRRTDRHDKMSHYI
Format: functional.

The next test addresses Cytochrome P450 2D6 (Homo sapiens, UniProt P10635).

Each structure is given as a SMILES string. Active and inactive are the calls of the source.

Sequence of Luciferin 4-monooxygenase (P08659 whole entry): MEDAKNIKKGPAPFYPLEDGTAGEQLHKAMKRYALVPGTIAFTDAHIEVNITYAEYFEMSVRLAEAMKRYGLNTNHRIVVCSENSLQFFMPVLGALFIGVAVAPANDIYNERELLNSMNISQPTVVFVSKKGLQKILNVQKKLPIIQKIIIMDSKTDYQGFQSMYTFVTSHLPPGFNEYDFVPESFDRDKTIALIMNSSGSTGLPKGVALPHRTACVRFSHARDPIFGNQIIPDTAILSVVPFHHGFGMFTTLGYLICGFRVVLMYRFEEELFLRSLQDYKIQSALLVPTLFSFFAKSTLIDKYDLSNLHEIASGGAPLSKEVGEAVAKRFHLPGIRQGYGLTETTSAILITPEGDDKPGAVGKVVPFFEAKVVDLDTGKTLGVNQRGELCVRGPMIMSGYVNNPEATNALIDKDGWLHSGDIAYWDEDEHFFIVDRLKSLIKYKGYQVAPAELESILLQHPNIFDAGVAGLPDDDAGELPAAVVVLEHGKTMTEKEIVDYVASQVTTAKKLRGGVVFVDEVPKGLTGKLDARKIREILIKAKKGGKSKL
Sequence of Cytochrome P450 2D6 (P10635 whole entry): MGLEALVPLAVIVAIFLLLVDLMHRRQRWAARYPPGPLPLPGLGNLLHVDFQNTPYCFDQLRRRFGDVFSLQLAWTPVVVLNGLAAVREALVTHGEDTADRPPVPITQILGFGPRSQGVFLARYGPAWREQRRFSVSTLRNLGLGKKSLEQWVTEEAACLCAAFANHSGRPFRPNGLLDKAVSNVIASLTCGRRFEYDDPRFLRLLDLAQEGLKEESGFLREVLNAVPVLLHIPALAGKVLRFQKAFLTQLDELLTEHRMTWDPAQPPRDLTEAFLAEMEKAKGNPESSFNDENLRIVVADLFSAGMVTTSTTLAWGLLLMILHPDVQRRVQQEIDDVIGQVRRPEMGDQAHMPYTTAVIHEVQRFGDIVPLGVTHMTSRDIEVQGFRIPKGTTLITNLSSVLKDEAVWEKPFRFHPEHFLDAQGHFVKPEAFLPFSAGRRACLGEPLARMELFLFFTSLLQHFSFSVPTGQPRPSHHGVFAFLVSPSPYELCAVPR

`O=[N+]([O-])c1ccc(N2CCN(C(S)=Nc3ccc(F)cc3)CC2)cc1`: in the test with INS1, the AC50 is 33.9 µM (active). For the molecule `COc1ccc(-c2csc(CCn3nc(C)cc3C)n2)cc1`, the EC50 in test [1] and in test [2] was > 112 µM (not active) in each case. Consider `CCOC(=O)c1c(-c2ccc(Cl)cc2)csc1NC(=O)CNCc1ccco1`, for which, in test [3], the AC50 was 2.72 µM (active). For `Cc1cc(NC(=O)c2cc3ncc(Br)cn3n2)no1`, the EC50 in [1] and in test [2] was > 112 µM (not active) throughout. Regarding `Cc1cccc(NC(=O)Cn2c(/C=C/c3ccccc3)nc3ccccc32)c1`, the AC50 in the test with INS1 is 30.6 µM (active). For `CN(Cc1ccccc1)C(=O)CCn1c(=O)oc2ccccc21`, in test [4], the EC50 is listed as > 195 µM (not active). For `CN(C)C(=O)c1ccc(-c2nccc(Nc3ccc(F)cc3)n2)cc1`, the AC50 on Cytochrome P450 3A4 is 10 µM (inconclusive). Consider `O=C(CSc1nncn1-c1ccccc1)Nc1ccc(N2CCOCC2)cc1`, for which the AC50 was 39.8 µM (inconclusive) at Cytochrome P450 1A2, 12.6 µM (inconclusive) on Cytochrome P450 2C9 and 3.16 µM (inconclusive) at Cytochrome P450 3A4.

Turning to `CCCCN=C(S)NNc1c(Cl)cc(Cl)cc1Cl`, the EC50 in test [4] was > 195 µM (not active). On to `Cn1ccnc1SCC(=O)N(C1CCCCC1)C1CCCCC1`, for which the EC50 in test [4] is reported as > 195 µM (not active). Same read-out and setting: next, `CC(C)(C)NC(=O)c1cccc(NC(=O)Cc2cccs2)c1`: > 195 µM (not active).

With `O=C(/C=C/c1ccc2c(c1)OCO2)NCCSCc1c(Cl)cccc1Cl`, in [3], the AC50 was 1.42 µM (active). On to `O=C(NC(=S)Nc1ccccc1N1CCCCC1)c1ccc(F)cc1Cl`, for which the EC50 is 3.75 µM (active) in test [5], 5.06 µM (active) on Streptokinase A and > 150 µM (not active) in the test with Streptococcus. In test [3], the AC50 is 1.67 µM (active). Turning to `Cc1ccc(NC(=O)N2CCCC2C(=O)NCC2CCCCC2)cc1` (stereo not given), in test [4], the EC50 is reported as > 195 µM (not active).

Take `Cn1c(=O)c2ncn(CC(=O)Nc3ccc4c5c(cccc35)CC4)c2n(C)c1=O`: at Protein skinhead-1, the IC50 is > 100 µM (inactive). The EC50 in test [4] is given as > 195 µM (not active). As to `O=C(CSc1nnc(-c2cccnc2)n1Cc1ccccc1)N1CCOCC1`, the results for the EC50 in test [1] and in test [2] were > 112 µM (not active) and 17.2 µM (active), respectively.

For `CCN(CC(=O)NCc1ccc(Cl)cc1)C(=O)CSc1ccc(Br)cc1`, the results for the EC50 in [1] and in test [2] were 43.9 µM (active) and > 112 µM (not active), respectively. For `COc1ccccc1NC(=O)C1=C(C)Nc2nnnn2C1c1ccccc1OC` (stereo not given) the same measures were > 112 µM (not active) and 72.3 µM (active). For `O=C(Nc1ccc(Nc2ccccc2)cc1)Nc1ccccc1Cl`, in test [3], the AC50 is 2.12 µM (active). For `O=C(COC(=O)[C@H](Cc1ccccc1)N1C(=O)c2ccccc2C1=O)Nc1ccc2c(c1)OCO2`, in test [4], the EC50 is > 195 µM (not active). In the case of `Cn1c(SCC(=O)N2CCCC2)nnc1-c1cccs1`, the EC50 in [1] and in [2] was > 112 µM (not active) each time. Consider `CC(=O)Nc1cccc(NC(=O)CSc2nnc(Cc3cccn3C)n2-c2ccc(F)cc2)c1`, for which the EC50 in [4] is given as > 195 µM (not active). Regarding `CCOC(=O)CSc1nc(O)c2c(n1)-c1ccccc1CC2(C)CC` (stereo not given), in the test on INS1, the AC50 is 40.1 µM (active).

As to `CC(=O)OCCNC(=O)Cn1cnc2c1c(=O)n(C)c(=O)n2C`, the EC50 in test [1] and in [2] was > 112 µM (not active) in each case. For the molecule `Cc1cc(C)c(NC(=O)CSc2ccc3nnc(CCNC(=O)c4ccccc4)n3n2)c(C)c1`, the EC50 in [1] and in [2] was > 112 µM (not active) throughout. On to `O=C(c1cccc(S(=O)(=O)N2CCOCC2)c1)N1CCN(c2ccc(F)cc2)CC1`, for which the EC50 in [1] and in [2] was > 112 µM (not active) in each case. Regarding `CCCc1ccc(-c2cc(NC(=O)CSc3nnc(N)s3)n(-c3ccccc3)n2)cc1`, in test [3], the AC50 was 3.72 µM (active).

Turning to `CN(C)CCNC(=O)c1sc2nc(-c3ccccc3)cc(C(F)(F)F)c2c1N`, in test [3], the AC50 is 2.65 µM (active). Consider `Cc1nc2cnc(N3CCOCC3)nc2n(Cc2cccs2)c1=O`, for which the AC50 at Cytochrome P450 2D6 was 39.8 µM (inconclusive); on Cytochrome P450 2C9, 15.8 µM (inconclusive); on Cytochrome P450 3A4, 7.94 µM (inconclusive). Take `Cn1c(=S)oc2ccccc21`: the EC50 in [1] and in test [2] was > 112 µM (not active) each time. As for `Cn1c(N2CCOCC2)nc(-c2ccccc2)c1-c1ccccc1`, the concentration giving a half-maximal response (EC50) in test [4] was > 195 µM (not active). For `COc1ccc(CNc2ncnc3ccc(-c4ccc5c(c4)OCO5)cc23)c(OC)c1`, the AC50 was 2.51 µM (active) on Cytochrome P450 2D6 and 0.794 µM (active) at Cytochrome P450 3A4.

For `Nc1nc(Cl)nc(N(c2ccccc2)c2ccccc2)n1`, the EC50 in test [4] is given as > 195 µM (not active). For `COc1ccc(C(=O)c2ccc3oc(-c4ccc(OC)cc4)c(-c4ccc(O)cc4)c3c2)cc1`, the AC50 in test [3] was 3.31 µM (active). Turning to `Cc1ccc(C(=O)N/N=C\c2cccn2C)cn1`, the results for the AC50 at Cytochrome P450 2C9 and at Cytochrome P450 3A4 were 89.1 µM (inconclusive) and 0.316 µM (inconclusive), respectively.

Regarding `NC(=S)N/N=C/c1c(O)c(Br)cc2oc3c(c12)CCCC3`, the AC50 in the test on INS1 is 0.819 µM (active). In the case of `CP(=O)(O)C1=CCNCC1`, at Cytochrome P450 3A4, the AC50 is 39.8 µM (inconclusive). For `Cc1cc(C)cc(C(=O)N(C)[C@H](Cc2ccc(-c3ccccc3)cc2)C(=O)N[C@@H](Cc2c[nH]c3ccccc23)C(=O)O)c1`, the AC50 on Cytochrome P450 1A2 is 39.8 µM (inconclusive); on Cytochrome P450 3A4, 25.1 µM (inconclusive).

`COc1cc(N)c(Cl)cc1C(=O)OCCCN1CCCCC1`: on Cytochrome P450 3A4, the AC50 was 25.1 µM (inconclusive).

A word on the AC50: it is the midpoint of the concentration-response curve, whichever way the signal moves. As usually defined, the EC50 is the concentration giving half of the maximal effect. The IC50 is the midpoint of a concentration-inhibition curve.
